The text below walks through data of patent US20140024663A1, “ATB(0,+) AMINO ACID TRANSPORTER AS A DRUG TARGET FOR TREATMENT OF ESTROGEN RECEPTOR-POSITIVE BREAST CANCER” (GEORGIA HEALTH SCIENCES UNIVERSITY RESEARCH INSTITUTE, INC., priority 2012, published 2014).

Series [1] concerns ZR75.1 cells. Briefly: QCM cell migration assay. The settings on record: ZR75.1, α-MT 2.5 mM, 48 h, p>0.05. It is filed as cell-based, human. As for the experimental part: Migration and invasion assays. The influence of α-MT on cell migration and invasion was determined with ZR75.1 cells. The migration of these cells toward fetal bovine serum was measured using the QCM™ cell migration assay kit (Millipore) according to manufacturer's instructions. Serum-starved ZR75.1 cells were allowed to migrate for 48 h in the presence/absence of α-MT (2.5 mM). After removing the cells on the top of the membrane filter, the inserts were stained with 0.1% crystal violet, washed and dried. The crystal violet dye retained on the filters, representing the cells that migrated to the underside of the membrane filter, was extracted with acetic acid. The absorbance of the extract was measured at 570 nm. Cell invasion assay was performed similarly using the QCM™ cell invasion assay kit (Millipore). The inserts used in this assay were coated with ECMATRIX™, representing extracellular matrix.

For series [2], the system named is MB231 cells. Briefly: Western blot of lamin A degradation product (caspase-6 substrate). The conditions noted are these: SLC6A14-negative MB231 cells, α-MT 2.5 mM, identical conditions. It is filed as cell-based, human. As for the experimental part:
(§1) FIGS. 9A to 9D. Influence of α-MT on mTOR activity In FIG. 9A, MCF7 and MB231 cells were treated without or with α-MT (2.5 mM) for 24 h, 48 h, or 72 h, and then the cell lysates were used for western blot. Influence of α-MT with or without 3-MA on cell death. In FIG. 9B, MCF7, MB231, and MCF10A cells were treated for 48 h without or with α-MT (2.5 mM), 3-MA (10 mM), or α-MT (2.5 mM) plus 3-MA (10 mM), and then analyzed for cell death by propidium iodide (PI) staining and FACS-based cell cycle analysis. In FIG. 9C, MCF7 cells were treated for 48 h without or with α-MT (2.5 mM), 3-MA (10 mM), or α-MT (2.5 mM) plus 3-MA (10 mM), and then analyzed for apoptotic cell death by annexin V labeling. In FIG. 9D, MCF7 and MB231 cells were treated without or with 2.5 mM α-MT for 24 h, 48 h, or 72 h. Cell lysates were then used for western blot analysis of lamin A degradation product using an antibody that recognizes specifically the proteolytic cleavage product. β-Actin was used as an internal control.
For orientation: A western blot detects proteins with antibodies after separation by electrophoresis.

The next series concerns MCF7 cells. Described as above. It is filed as cell-based, human. The settings on record: MCF7, α-MT 2.5 mM, 24, 48 or 72 h. As for the experimental part:
as §1

In a further series the test system is MCF10A cells. Briefly: Cell death by propidium iodide staining and FACS cell cycle analysis. It is filed as cell-based, human. The settings on record: α-MT 2.5 mM and 3-MA 10 mM, either alone or together, 48 h. As for the experimental part: as §1
Apoptosis assay. Fluorescence-activated cell sorting (FACS) was used to monitor cell death. MCF7 cells were treated with or without α-MT, 3-MA, or α-MT plus 3-MA. Control and treated cells were then fixed in 50% ethanol, treated with 0.1% sodium citrate, 1 mg/ml RNase A, and 50 μg/ml propidium iodide, and then subjected to FACS analysis (FACS Caliber, Becton Dickinson). FITC-labeled annexin V was used to differentiate apoptotic cell death from necrotic cell death.

Series [3] has as its system MB231 cells. The experiment in a line: Xenograft in nude mice, tumor growth. It is filed as in vivo, Balb/c nude mice. The settings on record: MB231 (ER-negative), α-MT in drinking water 2 mg/ml. As for the experimental part:
(§2) FIGS. 10A to 10D. In vivo efficacy of α-MT in the treatment of ER-positive breast cancer. ZR75.1 (FIG. 10A), MCF7 (FIG. 10B), and MB-231 (FIG. 10C) cells were injected subcutaneously (sc) into Balb/c nude mice (10×10^6 cells per injection site). For MCF7 cells, slow-releasing estrogen pellets were implanted to support the tumor growth. For each cell line, the control group received water with sucrose and the treatment group received α-MT (2 mg/ml) in water with sucrose. Tumor size was measured periodically. NS, not statistically significant (p>0.05); *, p<0.005; two-tailed unpaired Student's t test. In FIG. 10D, Balb/c nude mice were divided into two groups; the control group received water with sucrose and the treatment group received α-MT (2 mg/ml) in water with sucrose for 2 weeks. Mice were then bled and α-MT in plasma was determined by HPLC. Xenograft in nude mice. Human breast cancer cells (ZR75.1, MCF7, and MB231) were injected s.c. close to the lower mammary gland on the right side of Balb/c nude mice (10×10^6 cells per injection site). Only for MCF7 cells, slow-releasing estrogen pellets were implanted to support the tumor growth. Implantation of estrogen pellets was done as follows. […] Tumor size in control and treatment groups was measured periodically by caliper and […] was calculated using the formula (width^2×length)/2.

In series [4] the test system is ZR75.1 cells. Briefly: Xenograft in nude mice, tumor growth. The conditions noted are these: ZR75.1 (ER-positive), α-MT in drinking water 2 mg/ml. The format is in vivo, Balb/c nude mice. As for the experimental part:
as §2

The nature of series [5]: Measurement of α-MT in mouse plasma by HPLC. It is filed as in vivo, Balb/c nude mice. The conditions noted are these: mice, two weeks of administration in drinking water (2 mg/ml). As for the experimental part:
FIGS. 10A to 10D. In vivo efficacy of α-MT in the treatment of ER-positive breast cancer. ZR75.1 (FIG. 10A), MCF7 (FIG. 10B), and MB-231 (FIG. 10C) cells were injected subcutaneously (sc) into Balb/c nude mice (10×10^6 cells per injection site). For MCF7 cells, slow-releasing estrogen pellets were implanted to support the tumor growth. For each cell line, the control group received water with sucrose and the treatment group received α-MT (2 mg/ml) in water with sucrose. Tumor size was measured periodically. NS, not statistically significant (p>0.05); *, p<0.005; two-tailed unpaired Student's t test. In FIG. 10D, Balb/c nude mice were divided into two groups; the control group received water with sucrose and the treatment group received α-MT (2 mg/ml) in water with sucrose for 2 weeks. Mice were then bled and α-MT in plasma was determined by HPLC.
Measurement of α-MT in mouse plasma. Balb/c nude mice were divided into two groups; the control group received water with sucrose and the treatment group received α-MT (2 mg/ml) in water with sucrose for 2 weeks. Mice were then bled and α-MT in plasma was determined by HPLC as described by Laich et al (Laich et al., 2002, Clin Chem; 48:579-581).

Each structure is given as a SMILES string.

Regarding `CC(N)(Cc1c[nH]c2ccccc12)C(=O)O` (racemic) [α-MT, α-methyl-DL-tryptophan], in the series on ZR75.1 cells [1], the “migration in α-MT-treated cells” value was 87±7 % of control. For the same molecule, the “apoptosis (Lamin A cleavage)” value in the series on MB231 cells [2] is “no evidence of apoptosis”. Besides, the “apoptotic cell death shown by Lamin A cleavage” value in the series with MCF7 cells is “cleavage of Lamin A”. Besides, in the series on MCF10A cells, the “effect on cell death” value was “very little, if any, effect”. Also, the “tumor growth in xenograft” value in the series on MB231 cells [3] is on record as “did not affect the growth”; with ZR75.1 cells [4], “reduced the growth”. The plasma concentration of α-MT in series [5] was determined as 8.5 ± 0.5 µM.
